Laboratory results taken from patent US20090042839A1, “Crystalline forms of ibandronate sodium” (priority 2007, published 2009).

Experiments:
[1] = Stability of crystalline forms of ibandronate sodium when stored for 3 months at room temperature (polymorphic form by XRD); format: physicochemical; conditions: for crystalline form after storage: storage at room temperature for 3 months; for Results (crystalline form after storage): stored at 25° C., polyethylene bags in closed Aluminium bags, monosodium salt
Experimental: The x-ray powder diffraction was performed on Scintag X-ray powder diffractometer model X'TRA with a solid state detector at room temperature. Copper radiation of 1.5418 Å was used. The sample holder was a round standard aluminum sample holder with rough zero background. The scanning parameters were range: 2-40 degrees two-theta; scan mode: continuous scan; step size: 0.05 degrees; and at a rate of 5 degrees/minute. […]

[2] = Storage of crystalline ibandronate sodium Form C at room temperature for 2 years, retested by XRD; format: physicochemical; conditions: stored at room temperature for 2 years
Experimental: The x-ray powder diffraction was performed on Scintag X-ray powder diffractometer model X'TRA with a solid state detector at room temperature. Copper radiation of 1.5418 Å was used. The sample holder was a round standard aluminum sample holder with rough zero background. The scanning parameters were range: 2-40 degrees two-theta; scan mode: continuous scan; step size: 0.05 degrees; and at a rate of 5 degrees/minute.
Crystalline ibandronate sodium Form C was stored at room temperature for 2 years.

CCCCCN(C)CCC(O)(P(=O)([O-])O)P(=O)(O)O.[Na+] [Form Alpha, (1-hydroxy-3-(N-methyl-N-pentylamino)propylidene) bisphosphonic acid monosodium salt]
crystalline form after storage [1]: maintained their crystalline form | Results (crystalline form after storage) ([1]; 1 month): Alpha | Results (crystalline form after storage) ([1]; 3 months): Alpha

CCCCCN(C)CCC(O)(P(=O)([O-])O)P(=O)(O)O.[Na+] [Form C2, (1-hydroxy-3-(N-methyl-N-pentylamino)propylidene) bisphosphonic acid monosodium salt]
crystalline form after storage [1]: maintained their crystalline form

CCCCCN(C)CCC(O)(P(=O)([O-])O)P(=O)(O)O.[Na+] [Form C, (1-hydroxy-3-(N-methyl-N-pentylamino)propylidene) bisphosphonic acid monosodium salt, reference compound]
crystalline form after storage [1]: maintained their crystalline form | crystalline form found by XRD after storage [2]: crystalline ibandronate sodium Form V

CCCCCN(C)CCC(O)(P(=O)([O-])O)P(=O)(O)O.[Na+] [Form n-butanolate, (1-hydroxy-3-(N-methyl-N-pentylamino)propylidene) bisphosphonic acid monosodium salt]
crystalline form after storage [1]: maintained their crystalline form | Results (crystalline form after storage) ([1]; 1 month): n-butanolate | Results (crystalline form after storage) ([1]; 3 months): n-butanolate
